# Assay results published in US20060167099A1, “Use of compositions that increase glutamate receptor activity in treatment of brain injury” (priority 2004, published 2006).
# “Also recorded” adds a separate entry of the source.
# Assays:
# [1] = system: NMDAR; settings: NMDA 20 mg/kg i.p. 1 and 2 days after CHI; assessed 7 and 14 days postinjury (P=0.05 and 0.016)
# From the text: Trauma Model. We used 8- to 12-week-old male Sabra mice (30-35 g) kept under controlled temperature and light conditions with food and water available ad libitum. The study was approved by the Institutional Animal Care Committee of the Hebrew University. Experimental CHI was induced by using a modified weight-drop device developed in our laboratory (Chen et al., J. Neurotrauma 13, 557-568 (1996); Yatziv et al., J. Cereb. Blood Flow Metab. 22, 971-978 (2002)). Briefly, after induction of ether anesthesia, a midline longitudinal incision was performed, the skin was retracted and the skull was exposed. The left anterior frontal area was identified and a Teflon tipped cone (2-mm diameter) was placed 1 mm lateral to the midline, in the midcoronal plane. The head was held in place manually and a 75-g weight was dropped on the cone from a height of 18 cm, resulting in a focal injury to the left hemisphere. After trauma, the mice received supporting oxygenation with 95% O2 for no longer than 2 min and were then returned to their cages. […]
# (§1) Drug Treatments. […] The three groups were repeatedly evaluated for neurobehavioral deficits over a 2-week period (see below). […] Cognitive function was evaluated in head-injured and intact […] administered with either NMDA 20 mg/kg or saline 24 and again 48 h postinjury and tested 14 days later for performance in the object recognition test (see below).
# [2] = system: intact mice; test: NMDA dose-response experiment in intact mice (tolerability); settings: i.p.
# [3] = system: NMDAR; test: Object recognition test 14 days after CHI; assay type: in vivo, mice; settings: for Percent of exploration time at the novel object: 4 h after baseline; for Proportion of time exploring two objects at baseline: baseline with two identical objects
# From the text: Trauma Model. We used 8- to 12-week-old male Sabra mice (30-35 g) kept under controlled temperature and light conditions with food and water available ad libitum. The study was approved by the Institutional Animal Care Committee of the Hebrew University. Experimental CHI was induced by using a modified weight-drop device developed in our laboratory (Chen et al., J. Neurotrauma 13, 557-568 (1996); Yatziv et al., J. Cereb. Blood Flow Metab. 22, 971-978 (2002)). Briefly, after induction of ether anesthesia, a midline longitudinal incision was performed, the skin was retracted and the skull was exposed. The left anterior frontal area was identified and a Teflon tipped cone (2-mm diameter) was placed 1 mm lateral to the midline, in the midcoronal plane. The head was held in place manually and a 75-g weight was dropped on the cone from a height of 18 cm, resulting in a focal injury to the left hemisphere. After trauma, the mice received supporting oxygenation with 95% O2 for no longer than 2 min and were then returned to their cages. Sham controls received anesthesia and skin incision only. For autoradiographic studies, groups of four to five animals per time point were killed 15 min, 1, 4, 8, or 24 h, or 7 days postinjury and brains were quickly removed and frozen on dry ice.
# as §1
# Evaluation of Performance in the Object Recognition Test. The object recognition test was performed as originally described by Ennaceur and Delacour (Ennaceur & Delacour, Behav. Brain Res. 31, 47-59 (1988)). In the first part of the test (14 days after CHI) mice were placed in the testing cage (a glass aquarium-like transparent box of 60×60 cm) for 1 h habituation. On the following day they were put back into the same cage with two identical objects. The cumulative time spent by the mouse at each of the objects was recorded manually during a 5-min interval by an observer blinded to the treatment received. Four hours later, the mice were reintroduced into the cage, where one of the two objects was replaced by a new one. The time (of 5 min total) spent at each of the objects was recorded. The basic measure is the percent of the total time spent by mice in exploring an object during the testing period, whereby normal healthy rodents will spend relatively more time exploring a new object than a familiar, i.e., “memorized” object.
compound,measurement,setting,value
"CN[C@H](CC(=O)O)C(=O)O [NMDA, N-methyl-D-aspartate]",dNSS (extent of neurological recovery) compared to vehicle-treated CHI mice,[1],significantly higher; also recorded: significantly accelerated
same,Doses at which significant mortality was observed,[2]; doses tested between 20 and 100 mg/kg,above 60 mg/kg
same,Behavioural effects and mortality at the lowest dose,[2]; lowest dose of 20-100 mg/kg range (20 mg/kg),hyperactivity and some stereotypy but no convulsions or mortality
same,Object recognition performance compared to vehicle-treated CHI animals,"[3]; CHI mice, NMDA 20 mg/kg 24 and 48 h postinjury, 14 days after CHI (P<0.0001)",significantly higher percentage; also recorded: significantly better
same,Percent of exploration time at the novel object,"[3]; CHI mice, NMDA 20 mg/kg 24 and 48 h postinjury, tested 14 days after CHI",≈ 70%
same,Proportion of time exploring two objects at baseline,[3]; CHI+NMDA group,≈ 50%
same,Effect on object recognition performance of intact (naive) animals,"[3]; intact animals, NMDA 20 mg/kg",no effect
same,Percent of exploration time at the novel object,[3]; intact mice treated with NMDA 20 mg/kg,≈ 70%
same,Proportion of time exploring two objects at baseline,[3]; naive+NMDA group,≈ 50%
